Experiments:
[1] = test system: caspase-8, PARP and cytochrome C in MCF-7TAX cells; test: Immunoblotting of apoptosis markers, MCF-7TAX; format: cell-based, human
Protocol: (§1) For preparation of mitochondrial and cytoplasmic cellular fractions, MCF-7, MCF-7TAX, and MCF-7DOX cells were grown in a monolayer to 70-90% confluence on 10 cm tissue culture plates. Twenty-four hours prior to extraction, the cells were treated with 50 nM light-activated calphostin C as described above. After this treatment, the cells were trypsinized, centrifuged at 1000 rpm in a Beckman GP centrifuge and washed with PBS. To the resulting cell pellet, 1 ml of ice-cold homogenization (HM) buffer was added. This buffer consisted of 85.55 g sucrose, 1.406 g MOPS, 0.292 g EDTA, and 1 ml ethanol per liter of solution, with a final pH of 7.2. Prior to use, 0.2 ml of 0.1 M PMSF, 1 Complete™ protease inhibitor tablet (Roche Diagnostics, Laval, QC), and 20 μl of 1 M DTT was added for 100 ml of HM buffer. Cells were then lysed 10 times by homogenization in a 2 ml dounce homogenizer. Nuclei in the lysate were then pelleted by centrifugation in a microfuge tube at 70 g for 10 minutes at 4° C. and the supernatant carefully removed. The supernatant was clarified by centrifugation at 1950 g for 10 minutes at 4° C. and the pellet (containing mitochondria) was resuspended in 50 μl of HM buffer. The remaining clarified supernatant was deemed the cytoplasmic fraction. […]

[2] = test system: caspase-8, PARP and cytochrome C in MCF-7DOX cells; test: Immunoblotting of apoptosis markers, MCF-7DOX; format: cell-based, human
Protocol: as §1

[3] = test system: MDA-MB231 human breast cancer cells; test: Death and cytoplasmic vacuolization, MDA-MB231; format: cell-based; settings: data not shown
[4] = light-activated calphostin C, whole cell extracts
[5] = mitochondrial and cytoplasmic fractions

## COc1c(C[C@@H](C)OC(=O)Oc2ccc(O)cc2)c2c3c(C[C@@H](C)OC(=O)c4ccccc4)c(OC)c(=O)c4c(O)cc(OC)c(c5c(OC)cc(O)c(c1=O)c52)c43 [calphostin C]
[1]; [4]
  caspase-8 and PARP cleavage (protein levels): did not result in any change
[1]; [5]
  release of cytochrome C from mitochondria: no clear evidence for the release of cytochrome C
[2]; [4]
  caspase-8 and PARP cleavage (protein levels): did not result in any change
[2]; [5]
  release of cytochrome C from mitochondria: no clear evidence for the release of cytochrome C
[3]
  induction of death and cytoplasmic vacuolization: induce both death and cytoplasmic vacuolization

From patent publication US7371780B2, “Use of calphostin C to treat drug-resistant tumor cells” (priority 2003, dated 2008)
